pIC50: −log10 of the molar value. Where two headings read alike, the source gives them in different places.
Tests used:
Wistar male rats = test: Diuretic activity; type: in vivo; conditions: Rattus norvegicus, po, 25 mg/kg orally, urine taken for 6 hours
Experimental: Wistar male rats weighing 150 to 300 g were used after fasting for 18 hours. […] The test was performed using 3 groups per test compound, and each group consists of 3 animals. The urine was metered by a measuring cylinder and electrolytes (Na^+ and K^+) in the urine were analyzed by flame photometer (model […]: Hitachi Ltd.). Parameters in Table 3 are represented by relative value for control.

male dd-mice = test: Acute toxicity; type: in vivo; conditions: Minimum lethal dose, oral, mortality observed for seven days
Experimental: The compounds were orally administrated to male dd-mice weighing 20 ± 1 g. Minimum lethal dose (MLD) was determined by observing the mortality for seven days after the administration.

Hartley male guinea pigs = test: Experimental asthma (collapse time after antigen aerosol); type: in vivo; conditions: 50 mg/kg orally, 1 hour before 1.5% EWA aerosol; n=3-10 mean±S.E.M.; control 254 ± 18
Experimental: Guinea pigs were passively sensitized as follows. Hartley male guinea pigs weighing 350 to 500 g were intraperitoneally injected with 1 ml of rabbit anti-egg alubmin (EWA) serum prepared by the method of Koda et al. [Folia pharmacol., Japon, 66, 237 (1970)]. The animals were treated with intraperitoneal injection of diphenhydramine (20 mg/kg) and propranolol (5 mg/kg), 30 minutes before administration of test compounds. 17 hours after the sensitization, the test compounds (50 mg/kg or 5 mg/kg) or saline (control) were orally administrated to sensitized animals. After one hour from the administration of the test compounds, the guinea pigs were placed in plastic observation box and were exposed to an aerosal antigen of 1.5% EWA.
The time until the onset of respiratory distress-like symptom [collapse time (second)] was measured as a result of experimental asthma.

trachea = test: Passive Schultz-Dale reaction (broncho-dilatory effect) on isolated tracheal strips; conditions: Cavia porcellus; 50% relaxation of antigen (EWA, 1 µg/ml)-contracted tracheal strips of passively sensitized guinea pigs
Experimental: Guinea pigs were passively sensitized as follows. Hartley male guinea pigs weighing 350 to 500 g were injected intraperitoneally with rabbit anti-egg albumin (EWA) serum prepared by the method of Koda et al. [Folia pharmacol., Japon 66, 237, (1970)]. After 24 hours, the guinea pigs were stunned and exsanguinated, and then trachea was excised. The zig-zag strips of the trachea were prepared by the method of Emmerson and Mackay [J. Pharm. Pharmacol., 31, 798, (1979)]. The strips were suspended in Krebs-Henseleit solution at 37°C under aeration of a mixed gas of 95% oxygen and 5% carbon dioxide, and incubated for one hour. Antigen (EWA) was then introduced in the solution (final concentration; 1 µg/ml), and the contraction was measured by isotonictransducer (TD-112s, made by Nihon Kohden K.K., Japan) and recorded on a recorder (Type 3066, made by Yokogawa-Hokushin Denki, K.K. Japan). After the contraction curves reached plateau the compounds were successively added in order to get cumulative concentration-relaxation curves. Concentration of 50% relaxation rate (IC50) was calculated from the regression line, which was obtained from cumulative concentration-relaxation curves.

male dd mice = test: Inhibition of platelet activating factor (PAF)-induced mortality; type: in vivo; conditions: Mus musculus, minimum effective dose, oral, 1 hour before 40 µg/kg PAF i.v., mortality 2 hours after PAF, read-out: PAF-induced mortality MED
Experimental: The experiment was performed by a minor modification of method of Carlson et al. [Agents and Actions, 21, 379 (1987)]. Groups each consisting of 10 male dd mice (weighing 28 to 32 g) were used, and 100 mg/kg of test compound or a saline (control) was orally administrated. One hour after the administration of test compound, 40 µg/kg of PAF (manufactured by Avanti Polar Lipids Co., Ltd.) was intravenously administered. Two hours after PAF injection, the mortality rate of the animals was observed. […]

mice = test: Scopolamine-induced amnesia, step through passive avoidance; type: in vivo; conditions: scopolamine 0.5 mg/kg i.p., mean ± S.E.M., controls 40.9±8.1 (Compound 41), 37.0±6.2 (Compound 51)
Experimental: Acquisition trial was performed in a manner similar to Experiment (f). Amnestic treatment was performed by intraperitoneal administration of scopolamine (0.5 mg/kg), 30 minutes prior to the acquisition trial. The test trial was performed 24 hours after the acquisition trial and its latency was determined as in Experiment (f).
Preparation of administrated test compound was performed in a manner similar to Experiment (f). Test compound and the saline were orally administered 60 minutes before the acquisition trial, respectively.

[1] = relative value for control (1.00), read-out: Na^+/K^+
[2] = relative value for control (100), read-out: Excretion of K^+
[3] = relative value for control (100), read-out: Excretion of Na^+
[4] = relative value for control (100), read-out: Urine volume

Structure (SMILES): CCCn1c(=O)n2c(-c3cccnc3)nnc2c2c1ncn2C [Compound 4, 6,9-Dihydro-9-methyl-6-n-propyl-3-(3-pyridyl)-5H-1,2,4-triazolo[3,4-i]purin-5-one]
- response vs control in vivo at 25 mg/kg (Wistar male rats; [1]): 125%
- response vs control in vivo at 25 mg/kg (Wistar male rats; [2]): 134%
- response vs control in vivo at 25 mg/kg (Wistar male rats; [3]): 167%
- response vs control in vivo at 25 mg/kg (Wistar male rats; [4]): 177%
- MLD (male dd-mice): 200 mg/kg
- Experimental asthma Collapse time (Hartley male guinea pigs): 358 ± 65 s
- pIC50 (trachea): 5.11

Structure (SMILES): CCCCn1c(=O)n2c(-c3ccncc3)nnc2c2[nH]cnc21 [Compound 38, 6-n-Butyl-6,9-dihydro-3-(4-pyridyl)-5H-1,2,4-triazolo-[3,4-i]purin-5-one]
- response vs control in vivo at 25 mg/kg (Wistar male rats; [1]): 163%
- response vs control in vivo at 25 mg/kg (Wistar male rats; [2]): 180%
- response vs control in vivo at 25 mg/kg (Wistar male rats; [3]): 293%
- response vs control in vivo at 25 mg/kg (Wistar male rats; [4]): 353%
- MLD (male dd-mice): >300 mg/kg
- minimal effective dose (male dd mice): 25 mg/kg
- Experimental asthma Collapse time (Hartley male guinea pigs): 401 ± 78 s
- pIC50 (trachea): < 4.40

Structure (SMILES): CCCn1c(=O)n2c(-c3ccc(OC)cc3)nnc2c2c1ncn2C [Compound 9, 6,9-Dihydro-3-(4-methoxyphenyl)-9-methyl-6-n-propyl-5H-1,2,4-triazolo[3,4-i]purin-5-one]
- response vs control in vivo at 25 mg/kg (Wistar male rats; [1]): 157%
- response vs control in vivo at 25 mg/kg (Wistar male rats; [2]): 139%
- response vs control in vivo at 25 mg/kg (Wistar male rats; [3]): 219%
- response vs control in vivo at 25 mg/kg (Wistar male rats; [4]): 253%
- MLD (male dd-mice): >300 mg/kg
- pIC50 (trachea): 5.11

Structure (SMILES): CCCn1c(=O)n2c(C)nnc2c2[nH]cnc21 [Compound 25, 6,9-Dihydro-3-methyl-6-n-propyl-5H-1,2,4-triazolo[3,4-i]-purin-5-one]
- response vs control in vivo at 25 mg/kg (Wistar male rats; [1]): 163%
- response vs control in vivo at 25 mg/kg (Wistar male rats; [2]): 119%
- response vs control in vivo at 25 mg/kg (Wistar male rats; [3]): 193%
- response vs control in vivo at 25 mg/kg (Wistar male rats; [4]): 161%
- MLD (male dd-mice): 100 mg/kg
- minimal effective dose (male dd mice): 100 mg/kg
- Experimental asthma Collapse time (Hartley male guinea pigs): 590 ± 9.8 s
- pIC50 (trachea): 6.38

Structure (SMILES): CCCn1c(=O)n2c(C)nnc2c2c1ncn2C [Compound 24, 6,9-Dihydro-3,9-dimethyl-6-n-propyl-5H-1,2,4-triazolo-[3,4-i]purin-5-one]
- response vs control in vivo at 25 mg/kg (Wistar male rats; [1]): 123%
- response vs control in vivo at 25 mg/kg (Wistar male rats; [2]): 168%
- response vs control in vivo at 25 mg/kg (Wistar male rats; [3]): 148%
- response vs control in vivo at 25 mg/kg (Wistar male rats; [4]): 160%
- MLD (male dd-mice): 300 mg/kg
- minimal effective dose (male dd mice): 100 mg/kg

Structure (SMILES): CCCn1c(=O)n2c(-c3ccccc3)nnc2c2[nH]cnc21 [Compound 30, 6,9-Dihydro-3-phenyl-6-n-propyl-5H-1,2,4-triazolo[3,4-i]purin-5-one]
- response vs control in vivo at 25 mg/kg (Wistar male rats; [1]): 177%
- response vs control in vivo at 25 mg/kg (Wistar male rats; [2]): 124%
- response vs control in vivo at 25 mg/kg (Wistar male rats; [3]): 220%
- response vs control in vivo at 25 mg/kg (Wistar male rats; [4]): 204%
- MLD (male dd-mice): 300 mg/kg
- minimal effective dose (male dd mice): 10 mg/kg
- pIC50 (trachea): 6.12

Structure (SMILES): CCCn1c(=O)n2c(-c3ccncc3)nnc2c2c1ncn2C [Compound 3, 6,9-Dihydro-9-methyl-6-n-propyl-3-(4-pyridyl)-5H-1,2,4-triazolo[3,4-i]purin-5-one]
- response vs control in vivo at 25 mg/kg (Wistar male rats; [1]): 109%
- response vs control in vivo at 25 mg/kg (Wistar male rats; [2]): 196%
- response vs control in vivo at 25 mg/kg (Wistar male rats; [3]): 224%
- response vs control in vivo at 25 mg/kg (Wistar male rats; [4]): 274%
- MLD (male dd-mice): 100 mg/kg
- Experimental asthma Collapse time (Hartley male guinea pigs): 422 ± 130 s
- pIC50 (trachea): 7.49

Structure (SMILES): CCCCn1c(=O)n2c(=O)[nH]nc2c2c1ncn2C [Compound 51, 6-n-Butyl-9-methyl-2,5,6,9-tetrahydro-3H-1,2,4-triazolo[3,4-i]purin-3,5-dione]
- response vs control in vivo at 25 mg/kg (Wistar male rats; [1]): 100%
- response vs control in vivo at 25 mg/kg (Wistar male rats; [2]): 152%
- response vs control in vivo at 25 mg/kg (Wistar male rats; [3]): 152%
- response vs control in vivo at 25 mg/kg (Wistar male rats; [4]): 200%
- MLD (male dd-mice): >300 mg/kg
- Latency of test trial (mice; 0.625 mg/kg orally 60 minutes before acquisition trial): 37.0 ± 11.2 s
- Latency of test trial (mice; 2.5 mg/kg orally 60 minutes before acquisition trial): 69.5 ± 16.6 s
- Latency of test trial (mice; 10 mg/kg orally 60 minutes before acquisition trial): 139.9 ± 45.1 s
- Latency of test trial (mice; 40 mg/kg orally 60 minutes before acquisition trial): 166.3 ± 49.9 s

Structure (SMILES): CCCn1c(=O)n2c(-c3ccccc3)nnc2c2c1ncn2C [Compound 1, 6,9-Dihydro-9-methyl-3-phenyl-6-n-propyl-5H-1,2,4-triazolo-[3,4-i]purin-5-one]
- response vs control in vivo at 25 mg/kg (Wistar male rats; [1]): 318%
- response vs control in vivo at 25 mg/kg (Wistar male rats; [2]): 87%
- response vs control in vivo at 25 mg/kg (Wistar male rats; [3]): 226%
- response vs control in vivo at 25 mg/kg (Wistar male rats; [4]): 255%
- MLD (male dd-mice): 100 mg/kg
- pIC50 (trachea): 5.39

Structure (SMILES): CCCn1c(=O)n2c(-c3cccc(OC)c3)nnc2c2c1ncn2C [Compound 8, 6,9-Dihydro-3-(3-methoxyphenyl)-9-methyl-6-n-propyl-5H-1,2,4-triazolo[3,4-i]purin-5-one]
- response vs control in vivo at 25 mg/kg (Wistar male rats; [1]): 144%
- response vs control in vivo at 25 mg/kg (Wistar male rats; [2]): 122%
- response vs control in vivo at 25 mg/kg (Wistar male rats; [3]): 175%
- response vs control in vivo at 25 mg/kg (Wistar male rats; [4]): 170%
- MLD (male dd-mice): >300 mg/kg
- pIC50 (trachea): 5.25

Structure (SMILES): CCCn1c(=O)n2c(-c3ccoc3C)nnc2c2c1ncn2C [Compound 6, 6,9-Dihydro-9-methyl-3-(2-methyl-3-furyl)-6-n-propyl-5H-1,2,4-triazolo[3,4-i]purin-5-one]
- response vs control in vivo at 25 mg/kg (Wistar male rats; [1]): 164%
- response vs control in vivo at 25 mg/kg (Wistar male rats; [2]): 146%
- response vs control in vivo at 25 mg/kg (Wistar male rats; [3]): 240%
- response vs control in vivo at 25 mg/kg (Wistar male rats; [4]): 223%
- MLD (male dd-mice): 200 mg/kg
- minimal effective dose (male dd mice): 100 mg/kg

Structure (SMILES): CCCn1c(=O)n2c(-c3cccc(Cl)c3)nnc2c2c1ncn2C [Compound 11, 3-(3-Chlorophenyl)-6,9-dihydro-9-methyl-6-n-propyl-5H-1,2,4-triazolo[3,4-i]purin-5-one]
- response vs control in vivo at 25 mg/kg (Wistar male rats; [1]): 226%
- response vs control in vivo at 25 mg/kg (Wistar male rats; [2]): 134%
- response vs control in vivo at 25 mg/kg (Wistar male rats; [3]): 302%
- response vs control in vivo at 25 mg/kg (Wistar male rats; [4]): 255%
- MLD (male dd-mice): >300 mg/kg
- minimal effective dose (male dd mice): 100 mg/kg
- pIC50 (trachea): < 4.40

Structure (SMILES): Cn1c(=O)c2[nH]cnc2n(C)c1=O [Theophylline, reference compound]
- minimal effective dose (male dd mice): 100 mg/kg
- Experimental asthma Collapse time (Hartley male guinea pigs): 414 ± 47 s
- pIC50 (trachea): 4.64

Structure (SMILES): CCCn1c(=O)n2c(-c3ccccc3Cl)nnc2c2c1ncn2C [Compound 10, 3-(2-Chlorophenyl)-6,9-dihydro-9-methyl-6-n-propyl-5H-1,2,4-triazolo[3,4-i]purin-5-one]
- response vs control in vivo at 25 mg/kg (Wistar male rats; [1]): 124%
- response vs control in vivo at 25 mg/kg (Wistar male rats; [2]): 109%
- response vs control in vivo at 25 mg/kg (Wistar male rats; [3]): 134%
- response vs control in vivo at 25 mg/kg (Wistar male rats; [4]): 162%
- MLD (male dd-mice): 300 mg/kg
- pIC50 (trachea): 4.74

Structure (SMILES): CCCn1c(=O)n2c(-c3ccco3)nnc2c2c1ncn2C [Compound 5, 6,9-Dihydro-3-(2-furyl)-9-methyl-6-n-propyl-5H-1,2,4-triazolo[3,4-i]purin-5-one]
- MLD (male dd-mice): >300 mg/kg
- minimal effective dose (male dd mice): 100 mg/kg
- pIC50 (trachea): 6.15

Reference: EP0417790B1, “S-triazolo[3,4-i]purine derivatives” (Kyowa Hakko Kogyo Co., Ltd., priority 1989, dated 1991)
